# Results taken from patent publication US4490370A, “Naphthylglycyl cephalosporin derivatives” (priority 1983, dated 1984).
# Read-outs that look alike come from different tables or passages of the source.
# Assays:
# Strep. A = experiment: Agar dilution MIC, Strep. A; assay type: cell-based; details: Table I, strain C203; read-out: MIC
# Description: (§1) A typical and preferred compound provided by this invention is 7-(2-naphthylglycylamido)-3-methyl-3-cephem-4-carboxylic acid, the compound of Example 3. The antibacterial activity of this compound and several others of the invention has been determined in standard in vitro agar dilution assays against a variety of gram positive microorganisms. The following Tables present typical minimum inhibitory concentrations (MIC's) in μg/ml for the compounds when evaluated against the indicated microorganisms. MIC's for several known compounds are also presented for comparison.
# Staph. epi = experiment: Agar dilution MIC, Staph. epi; assay type: cell-based; details: read-out: MIC
# Description: (§2) The following Tables present typical minimum inhibitory concentrations (MIC's) in μg/ml for the compounds when evaluated against the indicated microorganisms.
# [1] = test system: β-lactamase (organism 1313G); experiment: Stability to β-lactamases, 1313G; assay type: biochemical; details: lower numbers mean greater stability
# [2] = test system: β-lactamase (organism PS185); experiment: Stability to β-lactamases, PS185; assay type: biochemical; details: lower numbers mean greater stability
# [3] = Plasma concentration after intravenous dose in rats; assay type: in vivo; details: rat, intravenous 20 mg/kg
# Procedure: For example, when 7-(2-naphthylglycylamido)-3-methyl-3-cephem-4-carboxylic acid was administered to rats at an intravenous dose of 20 mg/kg, the plasma concentration after one hour was 18.6 μg/ml; after four hours, 14.1 μg/ml; and after twenty-four hours, the plasm level was still measured as 1.96 μg/ml.
# Strep. PN = experiment: Agar dilution MIC, Strep. PN; assay type: cell-based; details: Table I, strain PARK; read-out: MIC
# Description: as §2
# Staph. aureus = experiment: Agar dilution MIC, Staph. aureus; assay type: cell-based; details: Staphylococcus aureus, read-out: MIC
# Description: as §2
# Propionibacterum acnes = experiment: Susceptibility of anaerobes, agar-dilution, 24 hour MIC; assay type: cell-based
# Description: as §1
# (§3) Susceptibility of Anaerobic Cocci
# (§4) Isolates by the Agar-Dilution
# (§5) Method-24 hour MIC's (μg/ml)
# [4] = test system: β-lactamase (organism 265A); experiment: Stability to β-lactamases, 265A; assay type: biochemical; details: lower numbers mean greater stability
# Bacteroides fragilis = experiment: Susceptibility of anaerobes, agar-dilution, 24 hour MIC; assay type: cell-based
# β-lactamase (TEM) = experiment: Stability to β-lactamases, TEM; assay type: biochemical; details: lower numbers mean greater stability
# [5] = test system: β-lactamase (organism 1082E); experiment: Stability to β-lactamases, 1082E; assay type: biochemical; details: lower numbers mean greater stability
# Klebsiella = experiment: Agar dilution MIC, Klebsiella; assay type: cell-based; details: Klebsiella; Table I, strain X26; read-out: MIC
# Description: as §1
# [6] = Oral absorption and blood levels in rodents; assay type: in vivo
# H. influ. = experiment: Agar dilution MIC, H. influenza; assay type: cell-based; details: Table III, strain 102; read-out: MIC
# Description: as §2
# P. prevoti = experiment: Susceptibility of anaerobic cocci, agar-dilution, 24 hour MIC; assay type: cell-based; details: isolate 1293
# Description: as §1, §3, §4, §5
# [7] = test system: Peptostreptococcus anaerobius; experiment: as above; assay type: cell-based
# Description: as §1, §3, §4, §5
# P. magnus = experiment: as above; assay type: cell-based; details: Finegoldia magna
# Description: as §1, §3, §4, §5
# [8] = test system: Peptococcus Asaccharolyticus; experiment: as above; assay type: cell-based; details: Peptoniphilus asaccharolyticus, isolate 1344
# Description: as §1, §3, §4, §5
# Peptococcus Constellatus = experiment: as above; assay type: cell-based; details: Streptococcus constellatus, isolate 1468
# Description: as §1, §3, §4, §5
# [9] = test system: Peptostreptococcus intermedius; experiment: as above; assay type: cell-based
# Description: as §1, §3, §4, §5
# B. Fragilis = experiment: Expanded spectrum MIC, B. Fragilis; assay type: cell-based; details: Bacteroides fragilis, Table III, read-out: MIC
# Description: as §1
compound,measurement,setting,value
"CC1=C(C(=O)O)N2C(=O)C(NC(=O)[C@H](N)c3ccc4ccccc4c3)C2SC1 (stereo partly drawn) [Example 3, D-7-(2-naphthylglycylamido)-3-methyl-3-cephem-4-carboxylic acid tetrahydrate]",MIC,Strep. A,0.5 mg/L
same,MIC,"Staph. epi; Table I, strain 222",0.5 mg/L
same,MIC,"Staph. epi; Table I, strain EPI1",1 mg/L
same,MIC,"Staph. epi; Table II expanded spectrum, strain EPI1",8 mg/L
same,MIC,"Staph. epi; Table II, strain 219",0.5 mg/L
same,MIC,"Staph. epi; Table II, strain 269",2 mg/L
same,MIC,"Staph. epi; Table II, strain 270",4 mg/L
same,MIC,"Staph. epi; Table II, strain 285",2 mg/L
same,MIC,"Staph. epi; Table II, strain 286",1 mg/L
same,Stability to β-lactamases,[1],256
same,Stability to β-lactamases,[2],25
same,concentration at 1 h,"[3]; 1 hour, read-out: plasma concentration after one hour",18.6 µg/mL
same,concentration at 4 h,"[3]; 4 hours, read-out: plasma concentration after four hours",14.1 µg/mL
same,concentration at 24 h,"[3]; 24 hours, read-out: plasma level after twenty-four hours",1.96 µg/mL
same,MIC,Strep. PN,0.5 mg/L
same,MIC,"Staph. aureus; Table I, strain V41",8 mg/L
same,MIC,"Staph. aureus; Table I, strain X1.1",0.5 mg/L
same,MIC,"Staph. aureus; Table I, strain X400",64 mg/L
same,MIC,"Staph. aureus; Table II, strain S224",0.5 mg/L
same,MIC,"Staph. aureus; Table II, strain S225",0.5 mg/L
same,MIC,"Staph. aureus; Table II, strain S226",1 mg/L
same,MIC,"Staph. aureus; Table II, strain S227",1 mg/L
same,MIC,"Staph. aureus; Table II, strain S228",0.5 mg/L
same,MIC,"Staph. aureus; Table II, strain S229",1 mg/L
same,MIC,"Staph. aureus; Table II, strain S230",0.5 mg/L
same,MIC,"Staph. aureus; Table II, strain S231",0.5 mg/L
same,MIC,"Staph. aureus; Table II, strain S234",1 mg/L
same,MIC,"Staph. aureus; Table II, strain S237",1 mg/L
same,MIC,"Staph. aureus; Table II, strain S238",1 mg/L
same,MIC,"Staph. aureus; Table II, strain S239",1 mg/L
same,MIC,"Staph. aureus; Table III expanded spectrum, strain 8725",0.25 mg/L
same,MIC,"Staph. aureus; Table III, strain 8438",0.25 mg/L
same,MIC,"Staph. aureus; Table III, strain 8787",0.25 mg/L
same,MIC,"Staph. aureus; Table III, strain 9050",0.5 mg/L
same,MIC,"Staph. aureus; Table III, strain 9136",0.25 mg/L
same,MIC,"Staph. aureus; Table III, strain 9290",1 mg/L
same,MIC,"Staph. aureus; Table III, strain 9767",1 mg/L
same,MIC,Propionibacterum acnes; isolate 44,4 mg/L
same,MIC,Propionibacterum acnes; isolate 79,8 mg/L
same,MIC,Propionibacterum acnes; isolate 101,8 mg/L
same,MIC,Propionibacterum acnes; isolate 104,8 mg/L
same,MIC,Propionibacterum acnes; isolate 105,4 mg/L
same,MIC,Propionibacterum acnes; isolate 5191,0.25 mg/L
same,MIC,Propionibacterum acnes; isolate 5227,0.25 mg/L
same,MIC,Propionibacterum acnes; isolate 5228,8 mg/L
same,MIC,Propionibacterum acnes; isolate 5229,8 mg/L
same,MIC,Propionibacterum acnes; isolate 5246,8 mg/L
same,Stability to β-lactamases,[4],50
same,MIC,Bacteroides fragilis; isolate 200,32 mg/L
same,MIC,Bacteroides fragilis; isolate 206,16 mg/L
same,MIC,Bacteroides fragilis; isolate 3625,16 mg/L
same,MIC,Bacteroides fragilis; isolate 7371A,16 mg/L
same,MIC,Bacteroides fragilis; isolate 19671,> 64 mg/L
same,MIC,Bacteroides fragilis; isolate 19681,16 mg/L
same,Stability to β-lactamases,β-lactamase (TEM),3
same,Stability to β-lactamases,[5],26
same,MIC,Klebsiella,2 mg/L
same,blood levels compared with cefaclor and cephalexin,[6],higher and longer blood levels than cefaclor and cephalexin
same,oral absorption,[6]; oral,efficiently orally absorbed
same,MIC,H. influ.,32 mg/L
same,MIC,P. prevoti,0.5 mg/L
same,MIC,[7]; isolate 8,≤ 0.125 mg/L
same,MIC,[7]; isolate 52,0.25 mg/L
same,MIC,[7]; isolate 1477,≤ 0.125 mg/L
same,MIC,P. magnus; isolate 1401,0.25 mg/L
same,MIC,P. magnus; isolate 1477,0.5 mg/L
same,MIC,[8],≤ 0.125 mg/L
same,MIC,Peptococcus Constellatus,0.25 mg/L
same,MIC,[9]; isolate 1264,1 mg/L
same,MIC,[9]; isolate 1524,1 mg/L
same,MIC,[9]; isolate 1624,1 mg/L
same,MIC,B. Fragilis; strain 180-821,2 mg/L
same,MIC,B. Fragilis; strain 10668,32 mg/L
same,MIC,B. Fragilis; strain 10683,32 mg/L
same,MIC,B. Fragilis; strain 10695,4 mg/L
same,MIC,B. Fragilis; strain 10750,16 mg/L
same,MIC,B. Fragilis; strain 10774,16 mg/L
same,MIC,B. Fragilis; strain 10817,2 mg/L
same,MIC,B. Fragilis; strain 10837,16 mg/L
same,MIC,B. Fragilis; strain 107266,16 mg/L
same,MIC,B. Fragilis; strain 107268,8 mg/L
